In patent US9796700B2 (Celgene CAR LLC, priority 2013, dated 2017):
Read-outs that look alike come from different tables or passages of the source.

Assays:
[1] = molecular target: T1, Erk1 (Homo sapiens (Human), UniProt P27361); assay: Protein Mass Modification Assay (intact protein MALDI); assay type: binding
How it was run: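 Human Erk1 was incubated 60 min at room temperature with a 10-fold molar excess of compound, then analysed as intact protein by MALDI with sinapinic acid matrix. The centroid mass shift versus untreated protein was divided by compound molecular weight to give percent modified protein.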
Target sequence in this assay (P27361 whole entry, looked up): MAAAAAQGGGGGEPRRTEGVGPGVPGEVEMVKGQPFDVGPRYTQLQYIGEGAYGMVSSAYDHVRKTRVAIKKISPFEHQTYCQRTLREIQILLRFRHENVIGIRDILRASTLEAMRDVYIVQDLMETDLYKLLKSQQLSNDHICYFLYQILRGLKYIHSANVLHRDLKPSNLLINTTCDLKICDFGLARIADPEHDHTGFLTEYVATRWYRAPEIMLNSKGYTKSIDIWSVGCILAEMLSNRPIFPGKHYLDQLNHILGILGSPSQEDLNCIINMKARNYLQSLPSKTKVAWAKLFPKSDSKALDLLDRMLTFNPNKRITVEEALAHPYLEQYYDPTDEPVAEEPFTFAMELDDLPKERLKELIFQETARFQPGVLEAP

[2] = molecular target: T1, Erk1; assay: Measurement of Erk occupancy with biotinylated covalent probe I-299; assay type: cell-based; settings: HT-29 cells
Method: Measurement of Erk Occupancy with Biotinylated Covalent Probe
This experiment measured occupancy of the ERK1 target by compounds according to the invention. This experiment was conducted using the Mesoscale Discovery test kit (Cat. #N45107B). One day before the assay, cells were split and added at 50,000 cells per well to a flat-bottom 96 well plate in 200 μl of growth medium. The next day, the medium was discarded, 100 μl medium containing test compound was added, and the plate was incubated at 37° C. for 120 minutes. The plate was rinsed once with PBS, and 50 μl lysis buffer with test compound was added. The plate was incubated at 4° C. for 30 min, and 30 μl of lysate was transferred to a plate to capture total and phosphor-Erk. Biotinylated probe I-299 was diluted in lysis buffer and added to each well to a final concentration of 0.2 μM. The plate was incubated for 2 hr under constant shaking at room temperature. The plate was washed 3 times with MSD wash buffer. To detect the biotinylated probe bonding, tagged streptavidin was added (MSD, Cat#R32AD-1) at 1 μg/ml, 25 μl/well, followed by a 60 min incubation under shaking. The plate was washed 3 times, 150 μl MSD Read Buffer (Cat#R61TX) was added and the plate was read in a plate reader manufactured by MSD. Percent occupancy by test compound at Erk was calculated by comparing the chemiluminescence readings from treated cells as compared to the chemiluminescence readings in untreated controls (which are defined as 100% probe bonding or 0% occupancy). The amount of covalent probe signal divided by the amount of ERK signal for samples with no test compound treatment represents the maximum probe signal (MPS). In samples treated with test compound prior to covalent probe, the ratio of probe signal to ERK signal (the test probe signal, TPS) was reduced by the degree of target occupancy by the test compound which blocks covalent probe binding. The difference between the MPS and the TPS, divided by the MPS gave the target occupancy by the test compound. This ratio was then expressed as a percent occupancy. Results from this assay are provided in Table A below under the column “Occupancy EC50 (nM) HT-29.”
Target sequence in this assay (P27361 2-379 limits assumed): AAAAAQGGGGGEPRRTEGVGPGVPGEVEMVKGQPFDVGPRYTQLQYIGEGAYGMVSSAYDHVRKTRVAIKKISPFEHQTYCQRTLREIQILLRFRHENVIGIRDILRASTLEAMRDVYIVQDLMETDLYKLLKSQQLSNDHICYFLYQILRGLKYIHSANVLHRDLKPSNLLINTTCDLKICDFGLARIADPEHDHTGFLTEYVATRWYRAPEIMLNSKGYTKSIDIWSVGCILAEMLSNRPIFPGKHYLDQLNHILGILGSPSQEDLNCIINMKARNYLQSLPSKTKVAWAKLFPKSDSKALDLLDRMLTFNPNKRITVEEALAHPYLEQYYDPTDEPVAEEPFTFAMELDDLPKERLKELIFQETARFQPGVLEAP

[3] = molecular target: MEK1 activated ERK1 (Homo sapiens (Human), UniProt P27361); assay: Omnia continuous-read kinase assay for potency against MEK1 activated ERK1; assay type: biochemical; settings: MEK1 activated ERK1, WT, ATP at KM
Sequence of MEK1 activated ERK1 (P27361 whole entry): as the sequence (P27361 whole entry, looked up) above
How it was run: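 Apparent IC50 came from initial reaction slopes (RFU vs time) plotted against log inhibitor with a variable-slope fit. Reactions were started with ERK1 (4 nM final) added to 50 μM ATP, roughly at its appKM, and 10 μM Sox-conjugated ST17 peptide in 20 mM Tris pH 7.5, 5 mM MgCl2. Fluorescence was monitored every 71 seconds.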

[4] = system: HT-29 cells; assay: Measurement of inhibition of cancer cell proliferation (CellTiterGlo); assay type: cell-based; settings: Homo sapiens, 72 hours
Method: Measurement of Inhibition of Cancer Cell Proliferation
HT-29 cells were split and 3000 cells in 100 μl of growth medium were added per well of a flat-bottom 96-well plate. A two-fold test compound solution in serum-free RPM1640 was made, starting at 5,000 nM. Then, 3-fold serial dilutions were made across the plate from well 1 to well 11. Well 12, the last well in a row on the plate, was left as untreated control. 100 μl compound solutions were then transferred to the wells, so the total volume of media was 200 μl per well. Plates were returned to a 37° C. incubator, and the cells were cultured for 72 hours. To measure cell proliferation after 72 hours, media was discarded from the plates, 50 μl/well of fresh medium was added, and 50 μl CellTiterGlo solution was added (Promega Cat#G7573). The plate was covered with a dark lid and incubated for 10 min. A sealing tape was applied to the bottom of the plate, and the plate was read in a luminescence plate reader. […] A 2-fold serial dilution was used to generate 8 cell densities from 50,000-390 cells per well in 50 μl media. 50 μl CellTiterGlo was added per well, and the plate was read in a luminescence plate reader after 10 min. The reading was plotted vs. cell number to generate a standard curve and the equation of the curve fit. The compound-treated sample luminescence readings were converted to cell numbers using the equation. The percent of inhibition, using untreated control as 100% growth, was then calculated. GI50 was then calculated by GraphPad Prism.

[5] = system: ERK1 phosphorylation of its substrate RSK in HT29 cells; assay: pRSK MSD Assay in HT29 cells; assay type: cell-based; settings: Homo sapiens
Method: The protocol below describes an assay to measure the kinase activity of ERK1 to phosphorylate its substrate, RSK, in the presence of a test compound. This experiment was conducted using a Mesoscale Discovery plate. The day before the assay, HT29 cells were split and plated at 50,000 cells/well in complete growth media. After allowing cells to adhere, the media was removed and replaced with media containing 0.1% FBS and incubated overnight. Blank MDS plates were coated with 25 μl/well RSK capture antibody and incubated at 4° C. overnight. The next day, the media was removed and replaced with 100 μl of media containing a test compound and incubated for 120 minutes at 37° C. The media was removed and replaced with 55 μl of well lysis buffer with protease and phosphatase inhibitors provided in the kit, followed by incubation at 4° C. for 30 minutes. 50 μl of lysate was transferred to a blocked MSD plate, followed by incubation at room temperature for 2 hours under constant shaking. The plate was washed 3 times with MSD wash buffer (cat#R617TX), and 25 μl/well phospho-RSK (pRSK) detection antibody was added with an appropriate Sulfo-tagged anti-species detection antibody diluted in 1% BSA in MSD wash buffer. This mixture was incubated for 1 hour at room temperature under constant shaking. The plate was washed 3 times, and 150 μl 1×MSD read buffer was added, followed by signal detection in an MSD plate reader.

[6] = HT-29, read-out: ERK1 PRSK MSD HT29 EC50 (nM)
[7] = HT-29, HT29 cells, read-out: ERK1 PRSK MSD HT29 EC50

ERK1 Mass Mod (%) [1] | EC50 [2] [nM] | IC50 [3] [nM] | GI50 [4] [nM] | EC50 [5, 7] [nM] | Compound | EC50 [5, 6] [nM]
E (provided a mass modification of ≧70%) | < 100 |  |  |  | C=CC(=O)Nc1ccccc1Nc1nc(N[C@@H]2CCC[C@H](C(N)=O)C2)ncc1C(F)(F)F (racemic) [Compound I-2, Rac-cis-3-((4-((2-acrylamidophenyl)amino)-5-(trifluoromethyl)pyrimidin-2-yl)amino)cyclohexanecarboxamide] | 
E (provided a mass modification of ≧70%) | < 100 | < 100 |  |  | C=CC(=O)Nc1ccccc1Nc1nc(N[C@@H]2CCC[C@H](C(N)=O)C2)ncc1Cl (racemic) [Compound I-102, Rac-cis-3-(4-(2-acrylamidophenylamino)-5-chloropyrimidin-2-ylamino)cyclohexane carboxamide] | 
E (provided a mass modification of ≧70%) | < 100 | < 100 |  |  | C=CC(=O)Nc1ccccc1Nc1nc(Nc2cc(C(N)=O)c(F)cc2C)ncc1C(F)(F)F [Compound I-76, 5-((4-((2-Acrylamidophenyl)amino)-5-(trifluoromethyl)pyrimidin-2-yl)amino)-2-fluoro-4-methylbenzamide] | 
E (provided a mass modification of ≧70%) |  |  | 501 to 999 | 501 to 999 | C=CC(=O)N(C)c1ccccc1Nc1nc(N[C@H]2CC[C@H](O)CC2)ncc1Cl [Compound I-104, N-(2-((5-chloro-2-(trans-(4-hydroxycyclohexyl)amino)pyrimidin-4-yl)amino)phenyl)-N-methylacrylamide] | 
E (provided a mass modification of ≧70%) |  |  | 501 to 999 |  | C=CC(=O)Nc1cc(OC)ccc1Nc1nc(Nc2ccc(N3CCN(C(C)=O)CC3)cc2OC)ncc1Cl [Compound I-152, N-(2-((2-((4-(4-acetylpiperazin-1-yl)-2-methoxyphenyl)amino)-5-chloropyrimidin-4-yl)amino)-5-methoxyphenyl)acrylamide] | 
E (provided a mass modification of ≧70%) |  |  | 101 to 500 |  | C=CC(=O)Nc1ccccc1Nc1nc(Nc2cc(C(=O)NOCCO)ccc2C)ncc1Cl [Compound I-198, 3-((4-((2-acrylamidophenyl)amino)-5-chloropyrimidin-2-yl)amino)-N-(2-hydroxyethoxy)-4-methylbenzamide] | 
E (provided a mass modification of ≧70%) |  |  | < 100 | < 100 | C=CC(=O)Nc1ccccc1Nc1nc(Nc2cc(N[C@H]3CC[C@@H](O)CC3)nc(OC)c2)ncc1C(F)(F)F [Compound I-292] | 

Continued, compound first:

Compound | ERK1 Mass Mod (%) [1] | EC50 [2] [nM] | IC50 [3] [nM] | GI50 [4] [nM] | EC50 [5, 7] [nM] | EC50 [5, 6] [nM]
C=CC(=O)Nc1cc(F)ccc1Nc1nc(N[C@H]2CC[C@@H](F)CC2)ncc1C(F)(F)F [Compound I-8, N-(5-fluoro-2-((2-((cis-4-fluorocyclohexyl)amino)-5-(trifluoromethyl)pyrimidin-4-yl)amino)phenyl)acrylamide] | E (key: E: provided a mass modification of ≧70%; F: provided a mass modification of 31-69%; G: proived a mass modification ≦30%) |  |  | 501 to 999 |  | < 100
C=CC(=O)Nc1cc(C)ccc1Nc1nc(N[C@H]2CCCN(C(=O)CF)C2)ncc1C(F)(F)F [Compound I-43, (S)—N-(2-((2-((1-(2-Fluoroacetyl)piperidin-3-yl)amino)-5-(trifluoromethyl)pyrimidin-4-yl)amino)-5-methylphenyl)acrylamide] | E (provided a mass modification of ≧70%) |  | < 100 | < 100 | 101 to 500 | 
C=CC(=O)Nc1ccccc1Nc1nc(N[C@H]2CC[C@H](OC)CC2)ncc1Cl [Compound I-100] | F (provided a mass modification of 31-69%) |  |  | > 1000 | 501 to 999 | 
C=CC(=O)Nc1ccccc1Nc1nc(Nc2ccc(N3CCN(C(C)=O)CC3)cc2OC)ncc1Cl [Compound I-149, N-(2-((2-((4-(4-acetylpiperazin-1-yl)-2-methoxyphenyl)amino)-5-chloropyrimidin-4-yl)amino)phenyl)acrylamide] | E (key: E: provided a mass modification of ≧70%; F: provided a mass modification of 31-69%; G: proived a mass modification ≦30%) |  |  | 101 to 500 |  | 
C=CC(=O)Nc1cc(C)ccc1Nc1nc(Nc2cc(N[C@H]3CC[C@@H](O)CC3)nc(OC)c2)ncc1C(F)(F)F [Compound I-326, N-(2-((2-((2-((cis-4-hydroxycyclohexyl)amino)-6-methoxypyridin-4-yl)amino)-5-(trifluoromethyl)pyrimidin-4-yl)amino)-5-methylphenyl)acrylamide] | E (provided a mass modification of ≧70%) |  |  | < 100 | < 100 | 
C=CC(=O)Nc1cc(C)ccc1Nc1nc(Nc2cc(NC3CCC(C)(O)CC3)nc(OC)c2)ncc1C(F)(F)F (stereo not drawn) [Compound I-327, N-(2-((2-((2-((trans-4-hydroxy-4-methylcyclohexyl)amino)-6-methoxypyridin-4-yl)amino)-5-(trifluoromethyl)pyrimidin-4-yl)amino)-5-methylphenyl)acrylamide] | E (key: E: provided a mass modification of ≧70%; F: provided a mass modification of 31-69%; G: proived a mass modification ≦30%) |  |  | < 100 |  | < 100
C=CC(=O)Nc1cc(C)ccc1Nc1nc(Nc2nc(OC)ncc2C(F)(F)F)ncc1C(F)(F)F [Compound I-355, N-(2-((2-((2-methoxy-5-(trifluoromethyl)pyrimidin-4-yl)amino)-5-(trifluoromethyl)pyrimidin-4-yl)amino)-5-methylphenyl)acrylamide] | E (provided a mass modification of ≧70%) |  |  | 101 to 500 | < 100 | 
C=CC(=O)Nc1cc(C)ccc1Nc1nc(Nc2ncc(F)c(OC)n2)ncc1C(F)(F)F [Compound I-356, N-(2-((2-((5-fluoro-4-methoxypyrimidin-2-yl)amino)-5-(trifluoromethyl)pyrimidin-4-yl)amino)-5-methylphenyl)acrylamide] | E (provided a mass modification of ≧70%) |  |  | 101 to 500 |  | 
